For one test, the target named is memapsin 2 (Homo sapiens, UniProt P56817). The test is described as follows: Inhibition of memapsin 2 beta-secretase activity toward fluorogenic substrate FS-2. The format is biochemical. The conditions noted are these: memapsin 2, pH 4, 37° C., 20 minutes pre-incubation, substrate FS-2; read-out: M2Ki. The procedure: Potency of compounds were determined by measurement of their inhibition of memapsin 2 activity toward a fluorescent substrate. Kinetic inhibition experiments were performed using the procedure as described in Ermolieff, et al. (Biochemistry 39:12450-12456 (2000), the teachings of which are incorporated hereby in their entirety). Briefly, assays were performed at pH 4, 37° C., by pre-incubation of memapsin 2 enzyme with compound for 20 minutes. Activity measurements were initiated by addition of a fluorogenic substrate FS-2 (Bachem Americas, Torrance, Calif.) MCA-SEVNLDAEFK-DNP (SEQ ID NO.: 2). The substrate was derived from 10 amino acids of the human amyloid precursor protein (APP), with the Swedish variant amino acids at the beta-secretase cleavage site. The terminal amino acid was modified from arginine to lysine to facilitate derivatization with a functional group for detection by autofluorescence. The amino acid sequence of the “core” peptide of the substrate is SEVNLDAEFK (SEQ ID NO.: 3). The amino terminus was derivatized with (7-methoxycoumarin-4-yl)acetyl (MCA), and the epsilon amine of the lysine side chain of the terminal residue (K in sequence SEVNLDAEFK (SEQ ID NO.: 4)) was derivatized with 2,4-dinitrophenyl (DNP).

Test [1] relates to Aβ production in Chinese hamster ovary cells that over-express human APP695 with the London and Swedish mutations. Kind of test: Cellular Aβ IC50 determination (Aβ40 sandwich ELISA). It counts as cell-based. The conditions noted are these: Cricetulus griseus; Aβ40 in CHO cells over-expressing human APP695, 24 h incubation. The procedure: The potency of compounds against memapsin 2 activity was determined in a cellular assay of Aβ production. […] Chinese hamster ovary cells that over-express human APP695 with the London and Swedish mutations were seeded in multi-well plates at 10% confluency. Compounds are dissolved in DMSO to concentrations near 1 mM, and diluted into culture media to a final concentration near 4 μM (final 0.4% DMSO). Compounds were diluted serially and applied to cells in multi-well plates 48 h after seeding. Incubation was continued in 5% CO2 at 37° C. for 24 h. Aliquots were removed and assayed for Aβ40 content using a sandwich ELISA (BioSource International). Amount of Aβ40 over the range of concentration of compounds, relative to control incubations, were fit to a 4-parameter IC50 model.

Bounds are passed on as bounds.

In patent publication US8299267B2, “(3-hydroxy-4-amino-butan-2-yl) -3- (2-thiazol-2-yl-pyrrolidine-1-carbonyl) benzamide derivatives and related compounds as beta-secretase inhibitors for treating” (CoMentis, Inc., priority 2007, dated 2012) one finds Ki and IC50 data, which are given here for 20 molecules.

memapsin 2, sequence (P56817 46-501): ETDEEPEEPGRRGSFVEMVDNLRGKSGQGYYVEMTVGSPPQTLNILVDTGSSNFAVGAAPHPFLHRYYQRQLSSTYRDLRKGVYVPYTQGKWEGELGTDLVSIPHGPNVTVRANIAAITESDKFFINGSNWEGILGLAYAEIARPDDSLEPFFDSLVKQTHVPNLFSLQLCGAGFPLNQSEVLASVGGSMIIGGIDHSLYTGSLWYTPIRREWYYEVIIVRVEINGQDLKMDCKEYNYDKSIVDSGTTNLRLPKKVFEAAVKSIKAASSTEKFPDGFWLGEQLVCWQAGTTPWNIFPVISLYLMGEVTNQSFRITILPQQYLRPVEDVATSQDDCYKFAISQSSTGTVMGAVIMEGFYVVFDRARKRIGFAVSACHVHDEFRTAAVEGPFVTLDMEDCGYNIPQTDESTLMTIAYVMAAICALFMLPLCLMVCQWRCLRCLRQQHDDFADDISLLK

For `C=C(C)c1cccc(CNC[C@@H](O)[C@H](Cc2ccccc2)NC(=O)c2cccc(C(=O)N3CCC[C@@H]3c3nc(C)co3)c2)c1` [Compound 105, N-((2S,3R)-3-hydroxy-1-phenyl-4-(3-(prop-1-en-2-yl)benzylamino)butan-2-yl)-3-((R)-2-(4-methyloxazol-2-yl)pyrrolidine-1-carbonyl)benzamide], the Ki on memapsin 2 is < 100 nM. Further, the IC50 in test [1] is < 300 nM. For the molecule `Cc1csc([C@H]2CCCN2C(=O)c2cc(C(=O)N[C@@H](Cc3ccccc3)[C@H](O)CNCc3cncc(C(C)C)c3)cc(-n3cccc3)c2)n1` [Compound 74, N-((2S,3R)-3-hydroxy-4-((5-isopropylpyridin-3-yl)methylamino)-1-phenylbutan-2-yl)-3-((R)-2-(4-methylthiazol-2-yl)pyrrolidine-1-carbonyl)-5-(1H-pyrrol-1-yl)benzamide], the Ki on memapsin 2 was < 100 nM. For the same molecule, the IC50 in test [1] was < 300 nM.

In the case of `COc1cccc(CNC[C@@H](O)[C@H](Cc2ccccc2)NC(=O)c2cc(OC)cc(C(=O)N3CCC[C@@H]3c3nc(C)cs3)c2)c1` [Compound 11, N-((2S,3R)-3-hydroxy-4-(3-methoxybenzylamino)-1-phenylbutan-2-yl)-3-methoxy-5-((R)-2-(4-methylthiazol-2-yl)pyrrolidine-1-carbonyl)benzamide], the Ki at memapsin 2 was < 100 nM. For the same molecule, the IC50 in test [1] is < 300 nM. As to `Cc1cc(C(=O)N[C@@H](Cc2ccccc2)[C@H](O)CNCc2cncc(C(C)(C)F)c2)cc(C(=O)N2CCC[C@@H]2c2nc(C)co2)c1` [Compound 59, N-((2S,3R)-4-((5-(2-fluoropropan-2-yl)pyridin-3-yl)methylamino)-3-hydroxy-1-phenylbutan-2-yl)-3-methyl-5-((R)-2-(4-methyloxazol-2-yl)pyrrolidine-1-carbonyl)benzamide], at memapsin 2, the Ki is < 100 nM. The half-inhibitory concentration (IC50) in test [1] is < 300 nM.

On to `COC[C@H]1CCCN1C(=O)c1cc(C)cc(C(=O)N[C@@H](Cc2ccccc2)[C@H](O)CNCc2cccc(OC)c2)c1` [Compound 3, N-((2S,3R)-3-hydroxy-4-(3-methoxybenzylamino)-1-phenylbutan-2-yl)-3-((R)-2-(methoxymethyl)pyrrolidine-1-carbonyl)-5-methylbenzamide], for which the Ki on memapsin 2 was < 100 nM. Besides, the IC50 in test [1] was < 300 nM. On the same counts, the results for `COc1cccc(CNC[C@@H](O)[C@H](Cc2ccccc2)NC(=O)c2cccc(C(=O)N3CCCC3)c2)c1` [Compound 21, N-((2S,3R)-3-hydroxy-4-(3-methoxybenzylamino)-1-phenylbutan-2-yl)-3-(pyrrolidine-1-carbonyl)benzamide] are > 201 nM and > 501 nM.

For the molecule `Cc1cc(C(=O)N2CCC[C@@H]2c2nc(C)cs2)cc(C(=O)N[C@@H](Cc2ccccc2)[C@H](O)CNCc2cccc(C(F)(F)F)c2)n1` [Compound 68, N-((2S,3R)-3-hydroxy-1-phenyl-4-(3-(trifluoromethyl)benzylamino)butan-2-yl)-6-methyl-4-((R)-2-(4-methylthiazol-2-yl)pyrrolidine-1-carbonyl)picolinamide], the Ki on memapsin 2 is < 100 nM. For the same molecule, in test [1], the IC50 was < 300 nM. On the same counts, the results for `COc1cccc(CNC[C@@H](O)[C@H](Cc2ccccc2)NC(=O)c2cccc(C(=O)N3CCCC[C@@H]3c3nc(C)cs3)c2)c1` [Compound 5, N-((2S,3R)-3-hydroxy-4-(3-methoxybenzylamino)-1-phenylbutan-2-yl)-3-((R)-2-(4-methylthiazol-2-yl)piperidine-1-carbonyl)benzamide] are < 100 nM and > 501 nM. With `Cc1csc([C@H]2CCCN2C(=O)c2cccc(C(=O)N[C@@H](Cc3ccccc3)[C@H](O)CNCc3cc(C(C)C)no3)c2)n1` [Compound 99, N-((2S,3R)-3-hydroxy-4-((3-isopropylisoxazol-5-yl)methylamino)-1-phenylbutan-2-yl)-3-((R)-2-(4-methylthiazol-2-yl)pyrrolidine-1-carbonyl)benzamide], the Ki on memapsin 2 is < 100 nM. Same read-out and setting: with `Cc1cc(C(=O)N[C@@H](Cc2ccccc2)[C@H](O)CNCc2cccc(OC(F)(F)F)c2)cc(C(=O)N2CCC[C@@H]2c2nc(C)co2)c1` [Compound 115, N-((2S,3R)-3-hydroxy-1-phenyl-4-(3-(trifluoromethoxy)benzylamino)butan-2-yl)-3-methyl-5-((R)-2-(4-methyloxazol-2-yl)pyrrolidine-1-carbonyl)benzamide] the figure was < 100 nM; with `COc1cccc(CNC[C@@H](O)[C@H](Cc2ccccc2)NC(=O)c2cccc(C(=O)N3CCC[C@H]3c3nc(C)cs3)c2)c1` [Compound 4, N-((2S,3R)-3-hydroxy-4-(3-methoxybenzylamino)-1-phenylbutan-2-yl)-3-((S)-2-(4-methylthiazol-2-yl)pyrrolidine-1-carbonyl)benzamide], > 201 nM; with `C=C(C)c1cccc(CNC[C@@H](O)[C@H](Cc2ccccc2)NC(=O)c2cc(C)cc(C(=O)N3CCC[C@@H]3c3nc(C)co3)c2)c1` [Compound 108, N-((2S,3R)-3-hydroxy-1-phenyl-4-(3-(prop-1-en-2-yl)benzylamino)butan-2-yl)-3-methyl-5-((R)-2-(4-methyloxazol-2-yl)pyrrolidine-1-carbonyl)benzamide], < 100 nM. Still for that read-out and setting: the value for `Cc1csc([C@H]2CCCN2C(=O)c2cncc(C(=O)N[C@@H](Cc3ccccc3)[C@H](O)CNCc3cc(C#N)cc(C(C)C)c3)c2)n1` [Compound 61, N-((2S,3R)-4-(3-cyano-5-isopropylbenzylamino)-3-hydroxy-1-phenylbutan-2-yl)-5-((R)-2-(4-methylthiazol-2-yl)pyrrolidine-1-carbonyl)nicotinamide] was < 100 nM. Same read-out and setting: with `Cc1csc([C@H]2CCCN2C(=O)c2cc(C(=O)N[C@@H](Cc3ccccc3)[C@H](O)CNCc3cncc(C(C)C)c3)cc(C(F)F)c2)n1` [Compound 62, 3-(difluoromethyl)-N-((2S,3R)-3-hydroxy-4-((5-isopropylpyridin-3-yl)methylamino)-1-phenylbutan-2-yl)-5-((R)-2-(4-methylthiazol-2-yl)pyrrolidine-1-carbonyl)benzamide] the figure was < 100 nM. On to `Cc1csc([C@H]2CCCN2C(=O)c2cc(C(=O)N[C@@H](Cc3ccccc3)[C@H](O)CNCc3cncc(C(C)(C)F)c3)cc(C(F)F)c2)n1` [Compound 58, 3-(difluoromethyl)-N-((2S,3R)-4-((5-(2-fluoropropan-2-yl)pyridin-3-yl)methylamino)-3-hydroxy-1-phenylbutan-2-yl)-5-((R)-2-(4-methylthiazol-2-yl)pyrrolidine-1-carbonyl)benzamide], for which the Ki on memapsin 2 was < 100 nM. Take `Cc1coc([C@H]2CCCN2C(=O)c2cccc(C(=O)N[C@@H](Cc3ccccc3)[C@H](O)CNCc3cncc(C(C)(C)C)c3)c2)n1` [Compound 111, N-((2S,3R)-4-((5-tert-butylpyridin-3-yl)methylamino)-3-hydroxy-1-phenylbutan-2-yl)-3-((R)-2-(4-methyloxazol-2-yl)pyrrolidine-1-carbonyl)benzamide]: the Ki on memapsin 2 is < 100 nM. On to `Cc1cc(C(=O)N[C@@H](Cc2ccccc2)[C@H](O)CNCc2cncc(C(C)(C)C)c2)cc(C(=O)N2CCC[C@@H]2c2nc(C)co2)c1` [Compound 112, N-((2S,3R)-4-((5-tert-butylpyridin-3-yl)methylamino)-3-hydroxy-1-phenylbutan-2-yl)-3-methyl-5-((R)-2-(4-methyloxazol-2-yl)pyrrolidine-1-carbonyl)benzamide], for which, on memapsin 2, the Ki is < 100 nM. Same read-out and setting: the value for `Cc1coc([C@H]2CCCN2C(=O)c2cccc(C(=O)N[C@@H](Cc3ccccc3)[C@H](O)CNC3CCCCC3)c2)n1` [Compound 107, N-((2S,3R)-4-(cyclohexylamino)-3-hydroxy-1-phenylbutan-2-yl)-3-((R)-2-(4-methyloxazol-2-yl)pyrrolidine-1-carbonyl)benzamide] was > 201 nM. On the same count and under the same terms, with `CCn1cc(CNC[C@@H](O)[C@H](Cc2ccccc2)NC(=O)c2cc(C)cc(C(=O)N3CCC[C@@H]3c3nc(C)co3)c2)cn1` [Compound 110, N-((2S,3R)-4-((1-ethyl-1H-pyrazol-4-yl)methylamino)-3-hydroxy-1-phenylbutan-2-yl)-3-methyl-5-((R)-2-(4-methyloxazol-2-yl)pyrrolidine-1-carbonyl)benzamide] the figure was < 100 nM; with `Cc1cc(C(=O)N[C@@H](Cc2ccccc2)[C@H](O)CNCc2cncc(C(C)(F)F)c2)cc(C(=O)N2CCC[C@@H]2c2nc(C)cs2)c1` [Compound 116, N-((2S,3R)-4-((5-(1,1-difluoroethyl)pyridin-3-yl)methylamino)-3-hydroxy-1-phenylbutan-2-yl)-3-methyl-5-((R)-2-(4-methylthiazol-2-yl)pyrrolidine-1-carbonyl)benzamide], < 100 nM.

By IC50 is commonly meant the midpoint of a concentration-inhibition curve.
